In patent publication US20260356851A1, “TRICYCLIC COMPOUNDS AND USES THEREOF” (HUTCHMED LIMITED, priority 2023, published 2026):

How the values were obtained:
Assay type in all cases: cell-based
[1] = target: T1, pERK1/2 (Thr202/Tyr204), PANC-1 (KRAS G121D) (Homo sapiens, UniProt P01116, G12D); assay: Assay of intracellular pERK1/2 (Thr202/Tyr204) phosphorylation in PANC-1 cells (KRAS G12D); conditions: pERK1/2, 2 days, read-out: PANC-1 (KRAS G12D) IC50
T1 construct: pERK1/2 HTRF read-out
Procedure, shortened: (§1)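 Cells (10000-12000/well) exposed to 3-fold compound dilutions for 2 days at 37 °C, then lysed; pERK1/2 (Thr202/Tyr204) measured by HTRF with d2 and cryptate antibodies, 665/615 nm ratio.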

[2] = target: T2, pERK1/2 (Thr202/Tyr204), NCI-1H441 (KRAS G12V) (Homo sapiens, UniProt P01116, G12V); assay: Assay of intracellular pERK1/2 (Thr202/Tyr204) phosphorylation in NCI-H441 cells (KRAS G12V); conditions: pERK1/2, 2 days, read-out: NCI-H441 (KRAS G12V) IC50
T2 construct: pERK1/2 HTRF read-out
T2 sequence (P01116 1-188 isoform P01116-2 G12V): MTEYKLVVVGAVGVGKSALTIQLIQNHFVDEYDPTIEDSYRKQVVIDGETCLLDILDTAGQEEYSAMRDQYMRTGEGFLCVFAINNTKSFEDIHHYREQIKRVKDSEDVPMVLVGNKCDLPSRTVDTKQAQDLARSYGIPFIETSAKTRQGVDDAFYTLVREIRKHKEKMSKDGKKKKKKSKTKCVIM
Procedure, shortened: as §1

[3] = target: T3, pERK1/2 (Thr202/Tyr204), NCI-1H358 (KRAS G12C) (Homo sapiens, UniProt P01116, G12C); assay: Assay of intracellular pERK1/2 (Thr202/Tyr204) phosphorylation in NCI-H358 cells (KRAS G12C); conditions: pERK1/2, 2 days, read-out: NCI-H358 (KRAS G12C) IC50
T3 construct: pERK1/2 HTRF read-out
T3 sequence (P01116 1-188 isoform P01116-2 G12C): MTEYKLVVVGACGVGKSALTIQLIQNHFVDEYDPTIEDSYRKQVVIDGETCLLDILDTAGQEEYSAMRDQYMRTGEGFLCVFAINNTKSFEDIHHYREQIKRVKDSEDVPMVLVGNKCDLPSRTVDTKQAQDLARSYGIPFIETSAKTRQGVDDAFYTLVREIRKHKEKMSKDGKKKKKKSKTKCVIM
Procedure, shortened: as §1

T1 sequence (P01116 1-188 isoform P01116-2 G12D): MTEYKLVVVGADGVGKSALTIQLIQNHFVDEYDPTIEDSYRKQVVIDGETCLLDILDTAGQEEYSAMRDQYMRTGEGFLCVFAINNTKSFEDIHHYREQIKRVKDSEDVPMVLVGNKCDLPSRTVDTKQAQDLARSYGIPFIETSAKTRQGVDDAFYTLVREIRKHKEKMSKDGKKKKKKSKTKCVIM

IC50 [1] | IC50 [2] | IC50 [3] | SMILES
3 nM | 0.4 nM | 0.2 nM | CC(c1cccnc1N)N1CCOc2nc(-c3cc(N)cc(Cl)c3C3CC3)c(F)c3nc(OC[C@@]45CCCN4C[C@H](F)C5)nc1c23 (stereo partly drawn) [Compound 66]
81 nM | 8 nM | 5 nM | CC(c1cccnc1N)N1CCOc2nc(-c3cc(N)cc(Cl)c3C3CC3)c(F)c3nc(OC[C@@H]4CCCN4C)nc1c23 (stereo partly drawn) [Compound 67]
> 1000 nM | 506 nM | 264 nM | CC(c1cccnc1N)N1CCOc2nc(-c3cc(N)cc(Cl)c3C3CC3)c(F)c3nc(OCC4(C#N)CC4)nc1c23 (stereo not drawn) [Compound 68]
95 nM | 10 nM | 3 nM | Cc1cc(N)cc(-c2nc3c4c(nc(OCC5(CN(C)C)CC5)nc4c2F)N(C(C)c2cccnc2N)CCO3)c1C(F)(F)F (stereo not drawn) [Compound 69]
> 100 nM | 2 nM | 2 nM | Cc1cc(N)cc(-c2nc3c4c(nc(OC[C@@H]5CC(F)(F)CN5C)nc4c2F)N(C(C)c2cccnc2N)CCO3)c1C(F)(F)F (stereo partly drawn) [Compound 70]
31 nM | 2 nM | 0.9 nM | Cc1cc(N)cc(-c2nc3c4c(nc(OC[C@@H]5C[C@@H](F)CN5C)nc4c2F)N(C(C)c2cccnc2N)CCO3)c1C(F)(F)F (stereo partly drawn) [Compound 73]
15 nM | 0.8 nM | 0.8 nM | CC(c1cccnc1N)N1CCOc2nc(-c3cc(N)cc(F)c3C(F)(F)F)c(F)c3nc(OC[C@@]45CCCN4C[C@H](F)C5)nc1c23 (stereo partly drawn) [Compound 82]
29 nM | 3 nM | 0.6 nM | Cc1nc(N)cc(-c2nc3c4c(nc(OC[C@@]56CCCN5C[C@H](F)C6)nc4c2F)N(C(C)c2cccnc2N)CCO3)c1C(F)(F)F (stereo partly drawn) [Compound 83]
36 nM | 6 nM | 3 nM | Cc1cc(N)cc(-c2nc3c4c(nc(OCC56CCCN5CCC6)nc4c2F)N(C(C)c2cccnc2N)CCO3)c1C(F)(F)F (stereo not drawn) [Compound 87]
> 100 nM | 100 nM | 46 nM | C#Cc1c(Cl)cc(N)cc1-c1nc2c3c(nc(OC[C@@H]4CCCN4C)nc3c1F)N(C(C)c1cccnc1N)CCO2 (stereo partly drawn) [Compound 94]
> 100 nM | 36 nM | 16 nM | Cc1nc(N)cc(-c2nc3c4c(nc(OC[C@@H]5CCCN5C)nc4c2F)N(C(C)c2cccnc2N)CCO3)c1C(F)(F)F (stereo partly drawn) [Compound 97]
24 nM | 3 nM | 2 nM | [2H]C([2H])(Oc1nc2c3c(nc(-c4cc(N)c(F)c(C)c4C(F)(F)F)c(F)c3n1)OCCN2C(C)c1cccnc1N)[C@@H]1CCC([2H])([2H])N1C([2H])([2H])[2H] (stereo partly drawn) [Compound 104]
2 nM | 0.6 nM | 0.4 nM | [2H]C1([2H])CC[C@@]2(C([2H])([2H])Oc3nc4c5c(nc(-c6cc(N)cc(C)c6C(F)(F)F)c(F)c5n3)OCCN4C(C)c3cccnc3N)C[C@@H](F)CN12 (stereo partly drawn) [Compound 105]
> 100 nM | 26 nM | 12 nM | Cc1cc(N)cc(-c2nc3c4c(nc(OC[C@@H]5CCCN5CCO)nc4c2F)N(C(C)c2cccnc2N)CCO3)c1C(F)(F)F (stereo partly drawn) [Compound 108]
21 nM | 1 nM | 1 nM | [2H]C([2H])([2H])N1CCC[C@H]1COc1nc2c3c(nc(-c4cc(N)cc(Cl)c4C(F)(F)F)c(F)c3n1)OCCN2C(C)c1cccnc1N (stereo partly drawn) [Compound 111]
34 nM | 2 nM | 1 nM | [2H]C([2H])(Oc1nc2c3c(nc(-c4cc(N)cc(Cl)c4C(F)(F)F)c(F)c3n1)OCCN2C(C)c1cccnc1N)[C@@H]1CCC([2H])([2H])N1C([2H])([2H])[2H] (stereo partly drawn) [Compound 112]
2 nM | 0.8 nM | 0.7 nM | [2H]C1([2H])CC[C@@]2(C([2H])([2H])Oc3nc4c5c(nc(-c6cc(N)cc(Cl)c6C(F)(F)F)c(F)c5n3)OCCN4C(C)c3cccnc3N)C[C@@H](F)CN12 (stereo partly drawn) [Compound 113]
19 nM | 0.9 nM | 0.6 nM | CCN1CCC[C@H]1COc1nc2c3c(nc(-c4cc(N)cc(C)c4C(F)(F)F)c(F)c3n1)OCCN2C(C)c1cccnc1N (stereo partly drawn) [Compound 114]
2 nM | 0.4 nM | 0.3 nM | [2H]C1([2H])CC[C@@]2(C([2H])([2H])Oc3nc4c5c(nc(-c6cc(N)c(F)c(C)c6C(F)(F)F)c(F)c5n3)OCCN4C(C)c3cccnc3N)C[C@@H](F)CN12 (stereo partly drawn) [Compound 119]
1 nM | 0.4 nM | 0.3 nM | Cc1c(F)c(N)cc(-c2nc3c4c(nc(OC[C@@]56CCCN5C[C@H](F)C6)nc4c2F)N(C(C)c2cccnc2N)CCO3)c1C(F)(F)F (stereo partly drawn) [Compound 120]

IC50 [1] | IC50 [2] | IC50 [3] | SMILES
> 100 nM | 98 nM | > 100 nM | Cc1cc(N)cc(-c2nc3c4c(nc(OC[C@@]56CCCN5C[C@H](F)C6)nc4c2F)N(C(C)c2cccnn2)CCO3)c1C(F)(F)F (stereo partly drawn) [Compound 121]
11 nM | 1 nM | 0.6 nM | [2H]C([2H])(Oc1nc2c3c(nc(-c4cc(N)cc(C)c4C(F)(F)F)c(F)c3n1)OCCN2C(C)c1cccnc1N)[C@@H]1C[C@@H](F)CN1C([2H])([2H])[2H] (stereo partly drawn) [Compound 122]
> 100 nM | 4 nM | 2 nM | Cc1cc(N)cc(-c2nc3c4c(nc(OC[C@@H]5CCCN5C5COC5)nc4c2F)N(C(C)c2cccnc2N)CCO3)c1C(F)(F)F (stereo partly drawn) [Compound 123]
> 100 nM | 31 nM | 7 nM | [2H]C([2H])(Oc1nc2c3c(nc(-c4cc(N)ccc4C(F)(F)F)c(F)c3n1)OCCN2C(C)c1cccnc1N)[C@@H]1C[C@@H](F)CN1C([2H])([2H])[2H] (stereo partly drawn) [Compound 126]
26 nM | 2 nM | 0.9 nM | [2H]C1([2H])CC[C@@]2(C([2H])([2H])Oc3nc4c5c(nc(-c6cc(N)ccc6C(F)(F)F)c(F)c5n3)OCCN4C(C)c3cccnc3N)C[C@@H](F)CN12 (stereo partly drawn) [Compound 129]
> 100 nM | 34 nM | 31 nM | CC(c1cccnc1N)N1CCOc2nc(-c3cc(O)cc(Cl)c3C3CC3)c(F)c3nc(OC[C@@H]4COCCN4C)nc1c23 (stereo partly drawn) [Compound 134]
30 nM | 3 nM | 2 nM | CC(c1cccnc1N)N1CCOc2nc(-c3cc(N)c(F)cc3C(F)(F)F)c(F)c3nc(OC[C@@]45CCCN4C[C@H](F)C5)nc1c23 (stereo partly drawn) [Compound 135]
> 100 nM | 61 nM | 17 nM | [2H]C([2H])(Oc1nc2c3c(nc(-c4cc(N)c(F)cc4C(F)(F)F)c(F)c3n1)OCCN2C(C)c1cccnc1N)[C@@H]1C[C@@H](F)CN1C([2H])([2H])[2H] (stereo partly drawn) [Compound 136]
> 100 nM | > 100 nM | 91 nM | CC(c1cccnc1N)N1CCOc2nc(-c3cc(O)cc(Cl)c3C3CC3)c(F)c3nc(OC[C@@H]4CCCCN4C)nc1c23 (stereo partly drawn) [Compound 139]
1 nM | 0.9 nM | 0.3 nM | [2H]C1([2H])CN(C(C)c2cccnc2N)c2nc(OC[C@@]34CCCN3C[C@H](F)C4)nc3c(F)c(-c4cc(N)cc(C)c4C(F)(F)F)nc(c23)O1 (stereo partly drawn) [Compound 140]
> 100 nM | 0.7 nM | 0.3 nM | [2H]C1([2H])CN(C([2H])(C)c2cccnc2N)c2nc(OC[C@@]34CCCN3C[C@H](F)C4)nc3c(F)c(-c4cc(N)cc(C)c4C(F)(F)F)nc(c23)O1 (stereo partly drawn) [Compound 141]
16 nM | 3 nM | 0.8 nM | Cc1cc(N)cc(-c2nc3c4c(nc(OC[C@@]56CCCN5C[C@H](F)C6)nc4c2F)N(C(C)c2cccnc2N)CCO3)c1C1CC1 (stereo partly drawn) [Compound 146]
1 nM | 0.3 nM | 0.2 nM | [2H]C1([2H])CC[C@@]2(COc3nc4c5c(nc(-c6cc(N)c(F)c(C)c6C(F)(F)F)c(F)c5n3)OCCN4C(C)c3cccnc3N)C[C@@]([2H])(F)CN12 (stereo partly drawn) [Compound 148]
7 nM | 0.9 nM | 0.3 nM | [2H]C([2H])(Oc1nc2c3c(nc(-c4cc(N)c(F)c(C)c4C(F)(F)F)c(F)c3n1)OCCN2C(C)c1cccnc1N)[C@@H]1C[C@@H](F)CN1C([2H])([2H])[2H] (stereo partly drawn) [Compound 149]
1 nM | 0.3 nM | 0.2 nM | [2H]C1([2H])CC[C@@]2(COc3nc4c5c(nc(-c6cc(N)c(F)c(C)c6C(F)(F)F)c(F)c5n3)OCCN4C(C)c3cccnc3N)C[C@@H](F)CN12 (stereo partly drawn) [Compound 150]
2 nM | 0.5 nM | 0.3 nM | [2H]C1([2H])CN(C(C)c2cccnc2N)c2nc(OC[C@@]34CCCN3C[C@H](F)C4)nc3c(F)c(-c4cc(N)c(F)c(C)c4C(F)(F)F)nc(c23)O1 (stereo partly drawn) [Compound 157]
> 100 nM | > 100 nM | 96 nM | CC(c1cccnc1N)N1CCOc2nc(-c3cc(N)c(F)c(F)c3F)c(F)c3nc(OC[C@@]45CCCN4C[C@H](F)C5)nc1c23 (stereo partly drawn) [Compound 158]
15 nM | 1 nM | 0.6 nM | Cc1cc(O)cc(-c2nc3c4c(nc(OC[C@@]56CCCN5C[C@H](F)C6)nc4c2F)N(C(C)c2cccnc2N)CCO3)c1C1CC1 (stereo partly drawn) [Compound 159]
> 100 nM | > 100 nM | > 100 nM | Cc1cc(Nc2nc3c4c(nc(OC[C@@]56CCCN5C[C@H](F)C6)nc4c2F)N(C(C)c2cccnc2N)CCO3)c(F)cc1C(F)(F)F (stereo partly drawn) [Compound 162]
6 nM | 0.4 nM | 0.2 nM | Cc1c(F)c(N)cc(-c2nc3c4c(nc(OC[C@]56CCCN5C[C@@H](F)C6)nc4c2F)N(C(C)c2cccnc2N)CCO3)c1C(F)(F)F (stereo partly drawn) [Compound 163]
